Results: patent US20120232062A1, “AZAINDAZOLES TO TREAT FLAVIVIRIDAE VIRUS INFECTION” (EIGER BIOPHARMACEUTICALS, INC., priority 2009, published 2012)

Tested on: Caco-2 cell line
Assay: Caco-2 permeability testing
Format: in vitro ADME, human
Set-up: Efflux (first figure of Efflux/permeability), Papp (B-A) / Permeability (second figure of Efflux/permeability), Papp (A-B): unit not given here
Conditions: for Permeability (second figure of Efflux/permeability), Papp (A-B): Caco-2, A-B; for Permeability (second figure of Efflux/permeability), Papp (A-B) / Efflux (first figure of Efflux/permeability), Papp (B-A): 90 min; for Efflux (first figure of Efflux/permeability), Papp (B-A): Caco-2, B-A; for intestinal absorption predicted by in vitro PK profiles: in words
From the text: Intestinal epithelium permeability is a critical characteristic that determines the rate and extent of human absorption and affects bioavailability of a drug candidate. Poor intestinal permeability leads to limited absorption. Generally, higher absorption is preferred. The Caco-2 cell line is a human colon adeno-carcinoma cell line that resembles the epithelial lining of the human small intestine. Several transport proteins that are expressed in human intestinal epithelium are also expressed in the Caco-2 cell model. Some transporter proteins are efflux systems which mediate the secretion of compounds from inside the cell back to the apical lumen (representative of the intestinal lumen), limiting overall absorption. In a permeability assay, the apparent permeability coefficient is measured between the apical to basolateral sides of a cell monolayer, Papp (A-B), and the basolateral to the apical side, Papp (B-A). Papp (A-B)<2×10^−6 cm/s is predictive of low permeability to the basolateral side, 2×10^−6 cm/s<Papp (A-B)<20×10^−6 cm/s is predictive of medium permeability, and Papp (A-B)>20×10^−6 cm/s is predictive of high permeability. In the B-A permeability assay, Papp (B-A) is measured and compounds evaluated for efflux potential. Together, these assay results are reported as a ratio of Papp (B-A) to Papp (A-B). Papp (B-A)/Papp (A-B)>3 are likely to be transported by one of the efflux systems, and have poor absorption. Papp (B-A)/Papp (A-B)<3 are likely to show reasonable intestinal absorption. An in vitro drug absorption assay suitable for use in predicting intestinal absorption of the compounds useful in the methods of the invention is described in this example. The embodiments of this assay described in this example were developed by Shanghai ChemPartner Co., Ltd., a corporation of China with its principal office located at 720 Cailun Road, Building No. 3, Shanghai 201203, China.
Caco-2 (ATCC, catalog No. HTB-37™) cells are cultured in growth medium (MEM+10% FBS+1% NEAA). The growth medium is prepared by adding 50 mL FBS and 5 mL NEAA to 445 mL of MEM or by adjusting the final volume according to actual needs. Trypsin-EDTA (Invitrogen, Cat #25200-072) is also used.
Hanks Balanced Salt Solution (HBSS, Invitrogen, Cat #14025-092) with 25 mM HEPES, pH 7.4, HBSS buffer with 0.2% DMSO (50 μL DMSO into 25 ml HBSS buffer), and HBSS buffer with 0.4% DMSO (100 μL DMSO into 25 ml HBSS buffer) are used.
10 mM stock solutions of a compound is prepared in DMSO and Lucifer Yellow in assay buffer using the formula (Actual Weight/Molecular Weight)/mL solvent=10 mM. Erythromycin, Metoprolol, and Atenolol are used as reference compounds. Donor solutions (10 μM for compounds and 5 μM for Lucifer Yellow) are prepared. For A-B, 4 μL of 10 mM compound stock solution and 2 μL of 10 mM Lucifer Yellow stock solution are loaded into 4 mL of HBSS buffer, and centrifuged (5 min, 4000 rpm) to precipitate undissolved particles. Supernatants are collected for compound dosing. For B-A, 4 μL (compounds) of 10 mM compound stock solution is added to 4 mL HBSS buffer with 0.2% DMSO, and centrifuged (5 min, 4000 rpm) to precipitate undissolved particles. Supernatants are collected for compound dosing.
Receiver solutions are prepared. For A-B, the solution is HBSS buffer with 0.4% DMSO. For B-A, 2 μL of 10 mM Lucifer Yellow stock solution is added to 4 mL of HBSS buffer with 0.2% DMSO. Compound solutions are prepared for standard curve (3 μM/1 μM/0.2 μM/0.04 μM/0.01 μM/0.005 μM):
1× solution: 3 μL of 20× solution (0.1-60 μM)+57 μL 0.4% DMSO HBSS+60 μL acetonitrile (ACN) with internal standard (IS, 200 ng/mL Osalmid). The assay was performed as described below
Stock cultures are maintained in MEM+10% FBS+1% NEAA, grown in 75 cm^2 tissue culture treated flasks and split (passed) 2 times weekly to maintain desired confluence. For maintenance passage, trypsinized cells are routinely distributed into new flasks at a standard passage ratio of 1:4. […]

Structure (SMILES)	Permeability (second figure of Efflux/permeability), Papp (A-B)	Efflux (first figure of Efflux/permeability), Papp (B-A)	Efflux/Permeability ratio (desired <3) (Caco-2, Papp (B-A)/Papp (A-B))	intestinal absorption predicted by in vitro PK profiles
Cn1nc(C(=O)NC2CCN(CCN3CCCCC3)CC2)c2ccc(N3CCCCCC3)nc21 [EBP1047]	11	8	0.8	moderate intestinal absorption
CCN1CCC(NC(=O)c2nn(C)c3nc(N4CCCCCC4)ccc23)CC1 [EBP1595]	15	14		moderate intestinal absorption
Cn1nc(C(=O)NC2CCN(CCN3CCCC3)CC2)c2ccc(N3CCCCCC3)nc21 [EBP1597]	9	7		moderate intestinal absorption
CC(C)N1CCC(NC(=O)c2nn(C)c3nc(N4CCCCCC4)ccc23)CC1 [EBP1604]				moderate intestinal absorption
